Data published in US6632794B1, “Insulin-like growth factor agonist molecules” (Genentech, Inc., priority 1997, dated 2003).

Columns and labels:
[1] = tested on: mouse 3T3 cells; experiment: ^3H-thymidine incorporation into mouse 3T3 cells; assay type: cell-based
Method: Assay 2: Increase in Cell Number of Mouse 3T3 Cells
The activity of the IGF mutant was also measured in a bioassay for the activity of IGF-I on DNA synthesis and cell replication. In this assay mouse 3T3 cells are cultured, and the IGF mutant or IGF-I is added, followed by tritiated ^3H-thymidine. The amount of ^3H-thymidine incorporated is a measure of the replication of DNA and thus of cell replication.

[2] = tested on: male Wistar rats; experiment: IV injection into conscious normal rats, plasma glucose and insulin; assay type: in vivo, rat; details: 100 μg IV; for fall in blood glucose / plasma insulin response: after 10 mins
Method: Seven week old male Wistar rats (240-250 g, Charles Rivers Laboratories, Hollister, Calif.) were anesthetized with KETAMINE/XYLAZINE™ anesthesia and the right jugular vein was cannulated with a silicone rubber cannula that was developed for chronic blood sampling. Clark et al., J. Endocrinol., 111: 27-35 (1986). Following a two- to three-day recovery period, two basal blood samples were taken at −10 and −5 minutes, the test substances administered to the rats by IV injection, and then blood samples collected after 5, 10, 20, 30, 45, 60, and 120 minutes, and the plasma was immediately separated by centrifugation. The glucose and insulin concentrations were subsequently determined either by a coupled hexokinase procedure using a Chem 1A serum chemistry analyzer or, in the later case, a rat insulin RIA kit (Linco Research, Inc., St. Charles, Mo.).
Statistical comparisons were made by an analysis of variance (ANOVA) with a Duncan's Multiple Range test. A p value of <0.05 was considered as being statistically significant. All data are represented as the mean±SEM.
Two treatment groups, with five rats per group, were dosed IV with either (Leu^24,Ala^31)hIGF-I (100 μg) or PBS.
The rats in three treatment groups, with 4-5 rats per group, were dosed IV with either (Leu^24,Ala^31)hIGF-I (100 μg) or rhIGF-I (100 μg) and a control group was given PBS.

[3] = tested on: Zucker Diabetic Fatty rats; experiment: IV bolus injection into diabetic rats, plasma glucose and insulin; assay type: in vivo, rat; details: ZDF rats, 100 μg IV; for fall in blood glucose: after 10 minutes
Method: Eighteen 7-week-old male Zucker Diabetic Fatty rats (250-300 g, Genetic Models Inc.) were anesthetized using KETAMINE™ (62.5 mg/kg)/ROMPUN XYLAZINE™ (12.5 mg/kg) anesthesia. The right jugular vein was cannulated using a silicone rubber catheter and the rats were allowed to recover.
Two days after surgery the rats (5-6/group) were divided into three treatment groups and given IV via the jugular catheter 200 μl of:
Three days later, using the same rats the study was repeated. The rats that were dosed with IGF-I in the initial study received the IGF mutant in the repeat study and vice versa. Control animals received PBS in both experiments.
Two blood samples were collected from each rat via the jugular cannula prior to IV dosing with the hormones and then blood samples were collected after 10, 30, 60, and 120 minutes. The plasma was immediately separated by centrifugation. The glucose concentration was measured by a coupled hexokinase procedure using a Chem 1A serum chemistry analyzer. Insulin concentration was measured using a rat insulin RIA kit (Linco Research, Inc., St. Charles, Mo.).
Statistical comparisons for each time point were made by an ANOVA with a Duncan's Multiple Range test. A p value of <0.05 was considered as being statistically significant. All data are represented as the mean±SEM, with five or six animals per treatment group.

[4] = tested on: Zucker Diabetic Fatty (ZDF) rats; experiment: Long-term administration to diabetic rats incl. glucose tolerance test; assay type: in vivo, rat; details: for change in blood glucose two hours following the glucose challenge: glucose tolerance test day 14, 2 g/kg ip, 150 μg tid
Method: Obese male Zucker Diabetic Fatty (ZDF) rats (6-7 weeks of age, 225-250 g, Genetic Models Inc., Indianapolis, Ind. 46268) were group housed (3/cage) in a room controlled for temperature and lighting and fed the pelleted rat diet specified by the breeders (Purina 5008, 6% fat breeder chow) and tap water ad libitum. After three days acclimation, a blood sample was obtained from the tail vein for measurement of blood glucose and insulin, which was measured by rat-specific RIA (Linco Research Inc., St. Charles, Mo.). Animals were randomized into four treatment groups and into cages to give groups balance so as to have equivalent initial blood glucose levels, insulin levels, and body weights.
The experiment consisted of four groups of rats with seven rats per group.
1.0 The mutant (Leu^24,Ala^31)hIGF-I was prepared at two concentrations (1.5 mg/ml, and 0.5 mg/ml) so that with three injections per day two doses were given (a total of 450 μg/d or 150 μg/d). rhIGF-I was prepared at one concentration (1.5 mg/ml) so that with three injections per day one dose was given (450 μg/d). A fourth group of rats were given the excipient. The injections, each of 100 μl volume, were given at 7am, 1pm, and 7pm for 15 days without disrupting the controlled diurnal lighting of the vivarium room. Body weights were measured each day at 1 pm.
Blood samples were collected from non-fasted rats on the evening before the first day of dosing and on days 3, 7, and 10. Blood samples (400 μl) on days 3, 7, and 10 were taken by bleeding from a tail vein one hour after the mid-day injection. The blood was allowed to clot, and serum was separated and stored before analysis.
A glucose tolerance test was performed on day 14 of the study. Rats received their regular morning injection and then their food was withdrawn. After a 3-5-hour fast a blood sample (400 μl) was taken via the tail vein. Rats then received 2 g/kg dextrose(50%) by intraperitoneal (ip) injection. A blood sample (200 μl) was taken via tail vein at 10, 60, and 120 minutes after dextrose administration. Blood was allowed to clot and serum was separated and stored for measurement of glucose and insulin concentrations. After the glucose tolerance test was completed, animals were re-fed.
On day 15, one hour after the morning injection, rats were asphyxiated with carbon dioxide and bled by cardiac puncture. Blood was allowed to clot and serum was separated and frozen. Spleen, thymus, heart, liver, kidney, and perirenal fat were removed, blotted dry, and immediately weighed.
Statistical comparisons for each time point were made by an analysis of variance with a Duncan's Multiple Range test. A p value of <0.05 was considered as being statistically significant. All data are represented as the mean +SEM, with seven animals per treatment group.

[5] = Day 10, 150 μg three times a day
[6] = day 13, 150 μg three times a day SC
[7] = glucose tolerance test day 14, 150 μg tid

Substance: (Leu^24,Ala^31)hIGF-I
- ^3H-thymidine incorporation [1]: no activity
- plasma insulin levels, % of that of the control group ([2]; Study One): 25%
- time plasma insulin remained depressed ([2]; Study One): 60 min
- fall in blood glucose ([2]; Study One): brief but statistically significant
- time plasma insulin remained depressed ([2]; Study Two): ≥ 120 min
- fall in blood glucose ([2]; Study Two): small but statistically significant fall in blood glucose
- plasma insulin response ([2]; Study Two): fall in insulin concentrations of a similar magnitude and degree of statistical significance
- plasma insulin response ([3]; Study One): suppressed blood insulin concentrations
- fall in blood glucose ([3]; Study One): smaller, but statistically significant
- rise in blood glucose, percentage change from basal ([4]; Day 10, 50 μg three times a day): 84±20%
- rise in blood glucose, percentage change from basal [4, 5]: 74±22%
- body weight gain ([4]; day 13, 50 μg three times a day SC): 100 ± 2.1 g
- body weight gain [4, 6]: 105.1 ± 2.3 g
- insulin in response to the glucose challenge ([4]; glucose tolerance test day 14, 50 μg tid): 10.2 ± 0.7 ng/mL
- insulin in response to the glucose challenge [4, 7]: 10.6 ± 0.6 ng/mL
- change in blood glucose two hours following the glucose challenge [4]: 59 ± 11 mg/dL

Substance: IGF-I: native-sequence recombinant human insulin-like growth factor-I (Genentech)
- ^3H-thymidine incorporation [1]: increased thymidine incorporation in a dose-related manner
- time plasma insulin remained depressed ([2]; Study Two): 120 min
- fall in blood glucose ([2]; Study Two): brief but statistically significant fall in blood glucose
- plasma insulin response ([2]; Study Two): decreased significantly
- plasma insulin response ([3]; Study One): large, and maintained fall in plasma insulin
- fall in blood glucose ([3]; Study One): immediate, moderate, and statistically significant
- plasma insulin response ([3]; Study Two): large, and maintained fall in plasma insulin
- fall in blood glucose ([3]; Study Two): immediate, moderate, and statistically significant
- rise in blood glucose, percentage change from basal [4, 5]: 25±10%
- body weight gain [4, 6]: 114.5 ± 1.6 g
- insulin in response to the glucose challenge [4, 7]: 12.2 ± 0.7 ng/mL
- change in blood glucose two hours following the glucose challenge [4]: 39 ± 12 mg/dL
